Measured values from ChEMBL document CHEMBL3286092, “Discovery of 1-arylpyrrolidone derivatives as potent p53-MDM2 inhibitors based on molecule fusing strategy” (Bioorg Med Chem Lett, 2014).

What was measured:
[1] = target: E3 ubiquitin-protein ligase Mdm2 (Homo sapiens, UniProt Q00987); experiment: Binding affinity to MDM2 (unknown origin) assessed as inhibition of interaction with p53 after 1 hr by fluorescence polarization binding assay
A549 = experiment: Induction of p53 level in human A549 cells after 4 hrs by Western blotting analysis; format: functional, cell-based

E3 ubiquitin-protein ligase Mdm2, sequence (Q00987 whole entry): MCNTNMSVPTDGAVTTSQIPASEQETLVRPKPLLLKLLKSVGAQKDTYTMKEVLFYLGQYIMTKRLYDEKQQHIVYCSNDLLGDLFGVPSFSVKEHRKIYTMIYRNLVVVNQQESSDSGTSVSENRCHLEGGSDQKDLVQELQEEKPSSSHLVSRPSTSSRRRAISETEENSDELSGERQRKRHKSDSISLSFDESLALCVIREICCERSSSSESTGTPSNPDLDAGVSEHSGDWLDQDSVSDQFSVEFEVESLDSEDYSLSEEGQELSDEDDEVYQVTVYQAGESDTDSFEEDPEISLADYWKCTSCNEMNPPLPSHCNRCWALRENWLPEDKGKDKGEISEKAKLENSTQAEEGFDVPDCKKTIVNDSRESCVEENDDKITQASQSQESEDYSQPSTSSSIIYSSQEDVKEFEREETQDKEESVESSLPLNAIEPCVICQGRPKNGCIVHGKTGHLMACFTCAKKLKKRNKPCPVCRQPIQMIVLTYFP

Row | SMILES | Ki [1] [µM] | Activity (A549)
1 | COc1cc(C(F)(F)F)ccc1CN1C(=O)C(N[C@H](C)c2ccccc2)=C(C(=O)c2ccccc2)C1c1ccc(Br)cc1 (stereo not given in full) | > 100 | 
2 | C[C@@H](NC1=C(C(=O)c2ccccc2)C(c2ccc(Br)cc2)N(Cc2ccc(C(F)(F)F)cc2F)C1=O)c1ccccc1 (stereo not given in full) | > 100 | 
3 | CC(C)Oc1cc(C(F)(F)F)ccc1CN1C(=O)C(N[C@H](C)c2ccccc2)=C(C(=O)c2ccccc2)C1c1ccc(Br)cc1 (stereo not given in full) |  | Dose-dependent effect

More lines, main results first:

Row | Ki [1] [µM] | SMILES | Activity (A549)
4 | > 100 | CC(C)OC1=C(C(=O)c2ccccc2)C(c2ccc(Br)cc2)N(Cc2ccc(C(F)(F)F)cc2OC(C)C)C1=O (stereo not given) | 
5 | > 100 | CC(C)OC1=C(C(=O)c2ccccc2)C(c2ccc(Br)cc2)N(Cc2ccc(C(F)(F)F)cc2F)C1=O (stereo not given) | 
